According to ChEMBL document CHEMBL3992501, “Synthesis and biological evaluation of salinomycin triazole analogues as anticancer agents” (Eur J Med Chem, 2017):

Assays:
MDA-MB-231 = test: Antiproliferative activity against human MDA-MB-231 cells after 48 hrs by MTT assay; format: functional, cell-based; details: MDA-MB-231, 48 h
MCF7 = test: Antiproliferative activity against human MCF7 cells after 48 hrs by MTT assay; format: functional, cell-based; details: MCF7, 48 h

IC50 (MDA-MB-231) [µM]	IC50 (MCF7) [µM]	Structure (SMILES)
6.69	0.6	CC[C@@H](C(=O)[C@@H](C)[C@@H](O)[C@H](C)[C@@H]1O[C@@H]([C@@H](CC)C(=O)O)CC[C@@H]1C)[C@H]1O[C@]2(C=C[C@@H](OC(=O)Cn3cc(COCCOC(=O)c4cn(CC(=O)O[C@@H]5C=C[C@]6(O[C@H]([C@@H](CC)C(=O)[C@@H](C)[C@@H](O)[C@H](C)[C@@H]7O[C@@H]([C@@H](CC)C(=O)O)CC[C@@H]7C)[C@@H](C)C[C@H]6C)O[C@@]56CC[C@@](C)([C@H]5CC[C@](O)(CC)[C@H](C)O5)O6)nn4)nn3)[C@]3(CC[C@@](C)([C@H]4CC[C@](O)(CC)[C@H](C)O4)O3)O2)[C@H](C)C[C@@H]1C
87.4	37.3	CC[C@@H](C(=O)[C@@H](C)[C@@H](O)[C@H](C)[C@@H]1O[C@@H]([C@@H](CC)C(=O)OCc2cn(CCC(=O)O)nn2)CC[C@@H]1C)[C@H]1O[C@]2(C=C[C@@H](O)[C@]3(CC[C@@](C)([C@H]4CC[C@](O)(CC)[C@H](C)O4)O3)O2)[C@H](C)C[C@@H]1C
4.66	0.74	CC[C@@H](C(=O)[C@@H](C)[C@@H](O)[C@H](C)[C@@H]1O[C@@H]([C@@H](CC)C(=O)O)CC[C@@H]1C)[C@H]1O[C@]2(C=C[C@@H](OC(=O)Cn3cc(COCc4cn(CC(=O)O[C@@H]5C=C[C@]6(O[C@H]([C@@H](CC)C(=O)[C@@H](C)[C@@H](O)[C@H](C)[C@@H]7O[C@@H]([C@@H](CC)C(=O)O)CC[C@@H]7C)[C@@H](C)C[C@H]6C)O[C@@]56CC[C@@](C)([C@H]5CC[C@](O)(CC)[C@H](C)O5)O6)nn4)nn3)[C@]3(CC[C@@](C)([C@H]4CC[C@](O)(CC)[C@H](C)O4)O3)O2)[C@H](C)C[C@@H]1C
44.1	36.3	CC[C@@H](C(=O)[C@@H](C)[C@@H](O)[C@H](C)[C@@H]1O[C@@H]([C@@H](CC)C(=O)OCc2cn(CCCCCC(=O)O)nn2)CC[C@@H]1C)[C@H]1O[C@]2(C=C[C@@H](O)[C@]3(CC[C@@](C)([C@H]4CC[C@](O)(CC)[C@H](C)O4)O3)O2)[C@H](C)C[C@@H]1C
26.2	19.9	CC[C@@H](C(=O)[C@@H](C)[C@@H](O)[C@H](C)[C@@H]1O[C@@H]([C@@H](CC)C(=O)OCc2cn(CCCCC(=O)O)nn2)CC[C@@H]1C)[C@H]1O[C@]2(C=C[C@@H](O)[C@]3(CC[C@@](C)([C@H]4CC[C@](O)(CC)[C@H](C)O4)O3)O2)[C@H](C)C[C@@H]1C
6.48	1.86	CC[C@@H](C(=O)[C@@H](C)[C@@H](O)[C@H](C)[C@@H]1O[C@@H]([C@@H](CC)C(=O)O)CC[C@@H]1C)[C@H]1O[C@]2(C=C[C@@H](OC(=O)Cn3cc(C(=O)O)nn3)[C@]3(CC[C@@](C)([C@H]4CC[C@](O)(CC)[C@H](C)O4)O3)O2)[C@H](C)C[C@@H]1C
4.06	0.91	CC[C@@H](C(=O)[C@@H](C)[C@@H](O)[C@H](C)[C@@H]1O[C@@H]([C@@H](CC)C(=O)O)CC[C@@H]1C)[C@H]1O[C@]2(C=C[C@@H](OC(=O)Cn3cc(COCCOCc4cn(CC(=O)O[C@@H]5C=C[C@]6(O[C@H]([C@@H](CC)C(=O)[C@@H](C)[C@@H](O)[C@H](C)[C@@H]7O[C@@H]([C@@H](CC)C(=O)O)CC[C@@H]7C)[C@@H](C)C[C@H]6C)O[C@@]56CC[C@@](C)([C@H]5CC[C@](O)(CC)[C@H](C)O5)O6)nn4)nn3)[C@]3(CC[C@@](C)([C@H]4CC[C@](O)(CC)[C@H](C)O4)O3)O2)[C@H](C)C[C@@H]1C
9.01	0.71	CC[C@@H](C(=O)[C@@H](C)[C@@H](O)[C@H](C)[C@@H]1O[C@@H]([C@@H](CC)C(=O)O)CC[C@@H]1C)[C@H]1O[C@]2(C=C[C@@H](OC(=O)Cn3cc(CCOC(=O)c4cn(CC(=O)O[C@@H]5C=C[C@]6(O[C@H]([C@@H](CC)C(=O)[C@@H](C)[C@@H](O)[C@H](C)[C@@H]7O[C@@H]([C@@H](CC)C(=O)O)CC[C@@H]7C)[C@@H](C)C[C@H]6C)O[C@@]56CC[C@@](C)([C@H]5CC[C@](O)(CC)[C@H](C)O5)O6)nn4)nn3)[C@]3(CC[C@@](C)([C@H]4CC[C@](O)(CC)[C@H](C)O4)O3)O2)[C@H](C)C[C@@H]1C
4.72	2.12	CC[C@@H](C(=O)[C@@H](C)[C@@H](O)[C@H](C)[C@@H]1O[C@@H]([C@@H](CC)C(=O)O)CC[C@@H]1C)[C@H]1O[C@]2(C=C[C@@H](OC(=O)Cn3cc(CCO)nn3)[C@]3(CC[C@@](C)([C@H]4CC[C@](O)(CC)[C@H](C)O4)O3)O2)[C@H](C)C[C@@H]1C
2.72	3.34	CC[C@@H](C(=O)[C@@H](C)[C@@H](O)[C@H](C)[C@@H]1O[C@@H]([C@@H](CC)C(=O)O)CC[C@@H]1C)[C@H]1O[C@]2(C=C[C@@H](OC(=O)Cn3cc(CO)nn3)[C@]3(CC[C@@](C)([C@H]4CC[C@](O)(CC)[C@H](C)O4)O3)O2)[C@H](C)C[C@@H]1C
5.83	1.88	CC[C@@H](C(=O)[C@@H](C)[C@@H](O)[C@H](C)[C@@H]1O[C@@H]([C@@H](CC)C(=O)O)CC[C@@H]1C)[C@H]1O[C@]2(C=C[C@@H](OC(=O)CCl)[C@]3(CC[C@@](C)([C@H]4CC[C@](O)(CC)[C@H](C)O4)O3)O2)[C@H](C)C[C@@H]1C
52.1	41.2	CC[C@@H](C(=O)[C@@H](C)[C@@H](O)[C@H](C)[C@@H]1O[C@@H]([C@@H](CC)C(=O)OCc2cn(CCCC(=O)O)nn2)CC[C@@H]1C)[C@H]1O[C@]2(C=C[C@@H](O)[C@]3(CC[C@@](C)([C@H]4CC[C@](O)(CC)[C@H](C)O4)O3)O2)[C@H](C)C[C@@H]1C
19.6	16.3	CC[C@@H](C(=O)[C@@H](C)[C@@H](O)[C@H](C)[C@@H]1O[C@@H]([C@@H](CC)C(=O)OCc2cn(CCCCCCC(=O)O)nn2)CC[C@@H]1C)[C@H]1O[C@]2(C=C[C@@H](O)[C@]3(CC[C@@](C)([C@H]4CC[C@](O)(CC)[C@H](C)O4)O3)O2)[C@H](C)C[C@@H]1C
1.94	3.66	CC[C@@H](C(=O)[C@@H](C)[C@@H](O)[C@H](C)[C@@H]1O[C@@H]([C@@H](CC)C(=O)O)CC[C@@H]1C)[C@H]1O[C@]2(C=C[C@@H](OC(=O)Cn3cc(CCCC(=O)O)nn3)[C@]3(CC[C@@](C)([C@H]4CC[C@](O)(CC)[C@H](C)O4)O3)O2)[C@H](C)C[C@@H]1C
4.31	3.64	CC[C@@H](C(=O)[C@@H](C)[C@@H](O)[C@H](C)[C@@H]1O[C@@H]([C@@H](CC)C(=O)OCc2cn(CCCCCCCCCCC(=O)O)nn2)CC[C@@H]1C)[C@H]1O[C@]2(C=C[C@@H](O)[C@]3(CC[C@@](C)([C@H]4CC[C@](O)(CC)[C@H](C)O4)O3)O2)[C@H](C)C[C@@H]1C
> 100	13.7	CC[C@@H](C(=O)[C@@H](C)[C@@H](O)[C@H](C)[C@@H]1O[C@@H]([C@@H](CC)C(=O)OCc2cn(CC(=O)O)nn2)CC[C@@H]1C)[C@H]1O[C@]2(C=C[C@@H](O)[C@]3(CC[C@@](C)([C@H]4CC[C@](O)(CC)[C@H](C)O4)O3)O2)[C@H](C)C[C@@H]1C
3.33	1.65	CC[C@@H](C(=O)[C@@H](C)[C@@H](O)[C@H](C)[C@@H]1O[C@@H]([C@@H](CC)C(=O)O)CC[C@@H]1C)[C@H]1O[C@]2(C=C[C@@H](OC(=O)Cn3cc(-c4cccc(N)c4)nn3)[C@]3(CC[C@@](C)([C@H]4CC[C@](O)(CC)[C@H](C)O4)O3)O2)[C@H](C)C[C@@H]1C
4.09	1.23	CC[C@@H](C(=O)[C@@H](C)[C@@H](O)[C@H](C)[C@@H]1O[C@@H]([C@@H](CC)C(=O)O)CC[C@@H]1C)[C@H]1O[C@]2(C=C[C@@H](OC(=O)Cn3cc(COCCO)nn3)[C@]3(CC[C@@](C)([C@H]4CC[C@](O)(CC)[C@H](C)O4)O3)O2)[C@H](C)C[C@@H]1C
3.13	2.03	CC[C@@H](C(=O)[C@@H](C)[C@@H](O)[C@H](C)[C@@H]1O[C@@H]([C@@H](CC)C(=O)O)CC[C@@H]1C)[C@H]1O[C@]2(C=C[C@@H](OC(=O)Cn3cc(CCC(=O)O)nn3)[C@]3(CC[C@@](C)([C@H]4CC[C@](O)(CC)[C@H](C)O4)O3)O2)[C@H](C)C[C@@H]1C

Structure (SMILES)	IC50 (MDA-MB-231) [µM]	IC50 (MCF7) [µM]
CC[C@@H](C(=O)[C@@H](C)[C@@H](O)[C@H](C)[C@@H]1O[C@@H]([C@@H](CC)C(=O)O)CC[C@@H]1C)[C@H]1O[C@]2(C=C[C@@H](O)[C@]3(CC[C@@](C)([C@H]4CC[C@](O)(CC)[C@H](C)O4)O3)O2)[C@H](C)C[C@@H]1C [SALINOMYCIN]	6.42	2.98
